Drawing on the Kinase Knowledgebase extract (Sharma et al. 2016), this text covers IC50 and inhibition for seven compounds.

One experiment deals with MAPK14 (human) (UniProt Q16539). The experiment can be described thus: Inhibition of LPS-Induced TNF-alpha Production in Human Peripheral Blood Mononuclear Cell. Conditions: pbmc.
Another experiment deals with MAPK14 (mice). The experiment can be described thus: Inhibition of LPS-Induced TNF-alpha Production in Mice. Conditions: dose or concentration not given here.
In the next experiment the target is MAPK14 (UniProt Q16539). The experiment can be described thus: Inhibition of MAPK14 Kinase Activity.
MAPK14, sequence (Q16539 whole entry, looked up): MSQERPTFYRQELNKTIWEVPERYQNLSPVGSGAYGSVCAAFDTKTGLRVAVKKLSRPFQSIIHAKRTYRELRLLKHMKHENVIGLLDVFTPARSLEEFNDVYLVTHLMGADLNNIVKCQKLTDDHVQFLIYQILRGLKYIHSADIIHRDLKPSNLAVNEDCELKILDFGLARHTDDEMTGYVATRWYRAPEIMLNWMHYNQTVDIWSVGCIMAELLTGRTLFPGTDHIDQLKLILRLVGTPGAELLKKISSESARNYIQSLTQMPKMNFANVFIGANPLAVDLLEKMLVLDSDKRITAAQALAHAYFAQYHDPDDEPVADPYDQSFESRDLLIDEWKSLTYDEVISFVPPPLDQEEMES

As usually defined, the IC50 is the concentration that gives 50% inhibition. Read a high IC50 as a need for much substance. Usually inhibition stands for the share of the control response that was lost under treatment.

MAPK14 (human), sequence (Q16539 whole entry, looked up): as above

Take `Fc1ccc(-c2[nH]c3ccc4[nH]c(Cc5ccccc5)nc4c3c2-c2ccncc2)cc1`: the IC50 at MAPK14 (human) is 60 nM.

`COC[C@H](C)Nc1cc(-c2c(-c3ccccc3)nc3nc(N)ccn23)ccn1` showed an IC50 against MAPK14 (human) of 0.5 nM. Still for that read-out and setting: in the case of `C[C@@H](Nc1nccc(-c2c(-c3ccccc3)nc3nc(N)ccn23)n1)c1ccccc1` it was 2.3 nM; in that of `Nc1ccn2c(-c3ccncc3)c(-c3ccc(F)cc3)nc2n1`, 40 nM. Regarding `C[C@H](Nc1nccc(-c2c(-c3ccccc3)nc3nc(N)ccn23)n1)c1ccccc1`, the inhibition in the experiment with MAPK14 (mice) is 100%. On MAPK14 (human), this compound yielded an IC50 of 0.6 nM. Regarding `C[C@H](Nc1cc(-c2c(-c3ccc(F)cc3)nc3nc(N)ccn23)ccn1)c1ccccc1`, the results for the IC50 against MAPK14 and at MAPK14 (human) were 1 nM and 2 nM, respectively. On MAPK14 (human), `Nc1ccn2c(-c3ccnc(N[C@H]4CCCc5ccccc54)c3)c(-c3ccccc3)nc2n1` displayed an IC50 of 3 nM.
